molecular target: human P2X3 receptor (Homo sapiens (Human), UniProt P56373); assay: Evaluation of human P2X3 receptor inhibitory activity (Fluo-3 calcium fluorescence, FDSS 3000, ATP stimulation); assay type: cell-based; conditions: C6BU-1 cells stably expressing human P2X3 receptor;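 note: stimulus was 50 nM ATP with fluorescence followed for 3 min, and the response per well was peak post-ATP fluorescence divided by the reading at measurement start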
Sequence (P56373 whole entry): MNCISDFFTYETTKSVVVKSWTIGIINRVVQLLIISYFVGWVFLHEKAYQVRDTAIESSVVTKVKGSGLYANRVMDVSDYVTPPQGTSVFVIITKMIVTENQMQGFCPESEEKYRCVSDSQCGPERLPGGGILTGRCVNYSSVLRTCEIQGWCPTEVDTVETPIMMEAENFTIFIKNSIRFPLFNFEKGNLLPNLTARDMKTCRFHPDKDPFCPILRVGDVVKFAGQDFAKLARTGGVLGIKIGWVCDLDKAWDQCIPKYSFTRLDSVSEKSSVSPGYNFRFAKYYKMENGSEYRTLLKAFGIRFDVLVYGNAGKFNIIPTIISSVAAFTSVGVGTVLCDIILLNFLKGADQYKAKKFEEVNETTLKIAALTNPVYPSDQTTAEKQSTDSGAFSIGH

| SMILES | IC50 |
| --- | --- |
| CCn1c(=O)[nH]/c(=N\c2ccc(Oc3cccc(NC(C)=O)c3)cc2)n(Cc2ccc(Cl)cc2)c1=O [Compound I-2139] | 22 nM |
| COC(=O)[C@@H](C)Cn1c(=O)[nH]/c(=N\c2ccc(OCC(F)F)c(C)c2)n(Cc2ccc(Cl)cc2)c1=O [Compound I-0738] | 19 nM |
| CCOC(=O)CC(C)(C)n1c(=O)[nH]/c(=N\c2ccc(OC(C)C)c(C)c2)n(Cc2ccc(Cl)cc2)c1=O [Compound I-0805] | 29 nM |
| Cc1ccc(Cn2c(=O)n(CCC(=O)O)c(=O)[nH]/c2=N\c2ccc3[nH]c(=O)sc3c2)cc1 [Compound I-2133] | 182 nM |
| CCOC(=O)CCn1c(=O)[nH]/c(=N\c2ccc(Oc3ccncc3)cc2)n(Cc2ccc(C)cc2)c1=O [Compound I-1230] | 4 nM |
| CCOC(=O)C1(Cn2c(=O)[nH]/c(=N\c3ccc(CC(C)C)c(Cl)c3)n(Cc3ccc(C)cc3)c2=O)CC1 [Compound I-1448] | 12 nM |
| Cc1ccc(Cn2c(=O)n(C[C@H](C)C(=O)O)c(=O)[nH]/c2=N\c2ccc(OC3CCCCC3)nc2)cc1 [Compound I-1188] | 131 nM |
| COC(=O)[C@@H](C)Cn1c(=O)[nH]/c(=N\c2ccc(OC(F)F)c(F)c2)n(Cc2ccc(Cl)cc2)c1=O [Compound I-0655] | 67 nM |
| COC(=O)c1cc(Oc2ccc(/N=c3\[nH]c(=O)n(CCOC4CCCCO4)c(=O)n3Cc3ccc(Cl)cc3)cc2)no1 (centres unmarked) [Compound I-2113] | 1 nM |
| CCCc1ccc(/N=c2\[nH]c(=O)n(C[C@H](C)C(=O)O)c(=O)n2Cc2ccc(Cl)cc2)cc1 [Compound I-0627] | 91 nM |
| CCOC(=O)c1cc(Oc2ccc(/N=c3\[nH]c(=O)n(CC)c(=O)n3Cc3ccc(Cl)cc3)cc2)[nH]n1 [Compound I-2192] | 8 nM |
| CC(C)Oc1ccc(/N=c2\[nH]c(=O)n(CC(=O)NO)c(=O)n2Cc2ccc(Cl)cc2)cc1F [Compound I-0636] | 10 nM |
| Cc1[nH]c2ccc(/N=c3\[nH]c(=O)n(CCOC4CCCCO4)c(=O)n3Cc3ccc(Cl)cc3)cc2c1C (centres unmarked) [Compound I-2038] | 13 nM |
| Cc1[nH]c2ccc(/N=c3\[nH]c(=O)n(CCO)c(=O)n3Cc3ccc(Cl)cc3)cc2c1C [Compound I-2042] | 23 nM |
| CC(C)Oc1ccc(/N=c2\[nH]c(OCC(=O)NN(C)C)nc(=O)n2Cc2ccc(Cl)cc2)cc1F [Compound I-0583] | 38 nM |
| Cc1cc(/N=c2\[nH]c(=O)n(CC3(C(=O)NCCO)CC3)c(=O)n2Cc2ccc(Cl)cc2)ccc1OC(C)C [Compound I-0704] | 23 nM |
| CC(C)OCc1ccc(/N=c2\[nH]c(=O)n(C[C@H](C)C(=O)O)c(=O)n2Cc2ccc(Cl)cc2)cc1 [Compound I-0669] | 193 nM |
| Cc1ccc(Cn2c(=O)n(CCC(=O)O)c(=O)[nH]/c2=N\c2cc(C(F)(F)F)ccc2C)cc1 [Compound I-2082] | 833 nM |
| CCn1c(=O)[nH]/c(=N\c2ccc(Oc3cc(C(=O)O)ncn3)cc2)n(Cc2ccc(Cl)cc2)c1=O [Compound I-2209] | 8 nM |
| CCOC(=O)OC(=O)c1ccc(Oc2ccc(/N=c3\[nH]c(=O)n(CC)c(=O)n3Cc3ccc(C)cc3)cc2)cc1 [Compound I-2068] | 16 nM |
| CC(C)Cc1ccc(/N=c2\[nH]c(=O)n(C[C@H](C)C(=O)O)c(=O)n2Cc2ccc(Cl)cc2)cc1F [Compound I-1257] | 9 nM |
| CC1CCC(Cn2c(=O)n(CCO)c(=O)[nH]/c2=N\c2ccc(Oc3ccnc(O)c3)cc2)CC1 (centres unmarked) [Compound I-2022] | 7 nM |
| COC(=O)C(C)(C)Cn1c(=O)[nH]/c(=N\c2ccc(OC(C)C)c(OC)c2)n(Cc2ccc(C)cc2)c1=O [Compound I-1272] | 7 nM |
| CCn1c(=O)[nH]/c(=N\c2ccc(Oc3cnc(C(=O)OC)cn3)cc2)n(Cc2ccc(Cl)cc2)c1=O [Compound I-2212] | 2 nM |
| CCn1c(=O)[nH]/c(=N\c2ccc(Oc3cncc(C#N)c3)cc2)n(CC2CCC3(CC2)CC3)c1=O [Compound I-2179] | 3 nM |
| Cc1ccc(Cn2c(=O)n(C[C@H](C)C(=O)O)c(=O)[nH]/c2=N\c2ccc(CC(C)C)c(F)c2)cc1 [Compound I-1256] | 18 nM |
| COC(=O)[C@H](C)[C@H](C)n1c(=O)[nH]/c(=N\c2ccc(OC(C)C)c(Br)c2)n(Cc2ccc(C)cc2)c1=O [Compound I-1307] | 7 nM |

same assay, conditions: C6BU-1 cells stably expressing human P2X3 receptor, Fluo-3 fluorescence, FDSS 3000

| SMILES | IC50 |
| --- | --- |
| CCCOc1ccc(/N=c2\[nH]c(=O)n([C@@H](C)[C@@H](C)C(=O)OC)c(=O)n2Cc2ccc(C)cc2)cc1 [Compound I-0926] | 31 nM |
| CCc1oc2ccc(/N=c3\[nH]c(=O)n(CC(CO)CO)c(=O)n3Cc3ccc(Cl)cc3)cc2c1C [Compound I-1842] | 5 nM |
| CCOC(=O)C1(Cn2c(=O)[nH]/c(=N\c3ccc(OCC4CC4)c(Cl)c3)n(Cc3ccc(C)cc3)c2=O)CC1 [Compound I-0970] | 20 nM |
| Cc1ccc(Cn2c(=O)n(C[C@H](C)C(=O)O)c(=O)[nH]/c2=N\c2cccc(C3=CCCC3)c2)cc1 [Compound I-1115] | 516 nM |
| CC[C@H](C)COc1ccc(/N=c2\[nH]c(=O)n(CCC(=O)O)c(=O)n2Cc2ccc(C)cc2)cc1 [Compound I-1066] | 425 nM |
| Cc1ccc(Cn2c(=O)n(CC3(C(=O)O)CC3)c(=O)[nH]/c2=N\c2ccc(OCC3CC3)c(Cl)c2)cc1 [Compound I-0976] | 69 nM |
| CNC(=O)c1cc(Oc2ccc(/N=c3\[nH]c(=O)n(CCO)c(=O)n3Cc3ccc(Cl)cc3)cc2)ccn1 [Compound I-1735] | 3 nM |
| CCOC(=O)CCn1c(=O)[nH]/c(=N\c2ccc(OC(C)C)c(C)c2)n(Cc2ccc(C)cc2)c1=O [Compound I-1156] | 6 nM |
| CCCc1nc2ccc(/N=c3\[nH]c(=O)n(CCC(=O)OCC)c(=O)n3Cc3ccc(C)cc3)cc2s1 [Compound I-1558] | 8 nM |
| CCc1oc2ccc(/N=c3\[nH]c(=O)n(CC(N)=O)c(=O)n3Cc3ccc(Cl)cc3)cc2c1C [Compound I-1656] | 7 nM |
| C[C@@H](Cn1c(=O)[nH]/c(=N\c2ccc3c(c2)CCCO3)n(Cc2ccc(Cl)cc2)c1=O)C(=O)O [Compound I-1103] | 423 nM |
| Cc1ccc(Cn2c(=O)n(CCCCC(=O)O)c(=O)[nH]/c2=N\c2ccc(OC(C)C)c(Cl)c2)cc1 [Compound I-1878] | 10 nM |
| CCOC(=O)C1(Cn2c(=O)[nH]/c(=N\c3ccc(OC(C)C)c(C)c3)n(Cc3ccc(C)cc3)c2=O)CC1 [Compound I-0941] | 5 nM |
| CCC[C@@H](C)Oc1ccc(/N=c2\[nH]c(=O)n(CCC(=O)OCC)c(=O)n2Cc2ccc(C)cc2)cc1 [Compound I-1053] | 79 nM |
| COC(=O)CC1(Cn2c(=O)[nH]/c(=N\c3ccc(OC(C)C)c(C)c3)n(Cc3ccc(C)cc3)c2=O)CC1 [Compound I-0980] | 11 nM |
| CCc1nc2ccc(/N=c3\[nH]c(=O)n(CC(=O)OC)c(=O)n3Cc3ccc(Cl)cc3)cc2s1 [Compound I-1752] | 4 nM |
| CCc1oc2ccc(/N=c3\[nH]c(=O)n(CCCO)c(=O)n3Cc3ccc(Cl)cc3)cc2c1C [Compound I-1625] | 6 nM |
| CCc1oc2ccc(/N=c3\[nH]c(=O)n(C[C@H](O)CO)c(=O)n3Cc3ccc(Cl)cc3)cc2c1C [Compound I-1624] | 8 nM |
| CCc1nc2ccc(/N=c3\[nH]c(=O)n(CCC(=O)NC)c(=O)n3Cc3ccc(Cl)cc3)cc2s1 [Compound I-1738] | 5 nM |

same assay, conditions: human P2X3 receptor, Test Example 1

| SMILES | IC50 |
| --- | --- |
| C=C(C)c1ccc(/N=c2\[nH]c(=O)n(C[C@H](C)C(=O)O)c(=O)n2Cc2ccc(C)cc2)cc1Cl [Compound I-1492] | 461 nM |
| CCn1c(=O)[nH]/c(=N\c2ccc(Oc3ccnc(C#N)n3)cc2)n(Cc2ccc(Cl)cc2)c1=O [Compound I-2310] | 5 nM |
| CC[C@@H](C)Oc1ccc(/N=c2\[nH]c(=O)n(C[C@H](C)C(=O)O)c(=O)n2Cc2ccc(C)cc2)cc1 [Compound I-0854] | 32 nM |
| Cc1nc2ccc(/N=c3\[nH]c(=O)n(CC(CO)CO)c(=O)n3Cc3ccc(Cl)cc3)cc2s1 [Compound I-1544] | 4 nM |
| CC(=O)Nc1cc(Oc2ccc(/N=c3\[nH]c(=O)n(C)c(=O)n3Cc3ccc(Cl)cc3)cc2)ccn1 [Compound I-2431] | 18 nM |
| O=c1[nH]/c(=N\c2ccc(Oc3cncc(F)c3)cc2)n(Cc2ccc(Cl)cc2)c(=O)n1C[C@H](O)CO [Compound I-2334] | 5 nM |
| COC(=O)[C@@H](C)Cn1c(=O)[nH]/c(=N\c2ccc(CC3CC3)c(Cl)c2)n(Cc2ccc(C)cc2)c1=O [Compound I-1511] | 29 nM |
| CCn1c(=O)[nH]/c(=N\c2ccc(Oc3cc(C(=O)O)sn3)cc2)n(C[C@H]2CC[C@H](C)CC2)c1=O [Compound I-2349] | 4 nM |
| O=c1[nH]/c(=N\c2ccc(Oc3cnsn3)cc2)n(Cc2ccc(Cl)cc2)c(=O)n1CC(CO)CO [Compound I-2478] | 5 nM |
| Cc1nc2ccc(/N=c3\[nH]c(=O)n(CC4(C(=O)O)CC4)c(=O)n3Cc3ccc(Cl)cc3)cc2s1 [Compound I-1552] | 15 nM |
| CCn1c(=O)[nH]/c(=N\c2ccc(Oc3ccc(C(=O)O)cc3)nc2)n(Cc2ccc(Cl)cc2)c1=O [Compound I-2621] | 265 nM |
| CCn1c(=O)[nH]/c(=N\c2ccc(Oc3ccnc(C(=O)O)c3)c(OC)c2)n(Cc2ccc(Cl)cc2)c1=O [Compound I-2295] | < 4 nM |
| O=c1[nH]/c(=N\c2ccc(Oc3ccon3)cc2)n(Cc2ccc(Cl)cc2)c(=O)n1CCOC1CCCCO1 (centres unmarked) [Compound I-2288] | 1 nM |
| O=c1[nH]/c(=N\c2ccc(Oc3ncns3)cc2)n(Cc2ccc(Cl)cc2)c(=O)n1CC(CO)CO [Compound I-2521] | 5 nM |
| CNC(=O)Cn1c(=O)[nH]/c(=N\c2ccc(Oc3nccs3)cc2)n(Cc2ccc(Cl)cc2)c1=O [Compound I-2645] | 18 nM |
| Cn1c(=O)[nH]/c(=N\c2ccc(Oc3ccc(C(N)=O)nc3)cc2)n(Cc2ccc(Cl)cc2)c1=O [Compound I-2406] | 10 nM |
| CCn1c(=O)[nH]/c(=N\c2ccc(Oc3cc(C#N)ccn3)cc2)n(Cc2ccc(Cl)cc2)c1=O [Compound I-2227] | 4 nM |
| CCn1c(=O)[nH]/c(=N\[C@H]2CC[C@H](Oc3ccnc(C(=O)O)c3)CC2)n(Cc2ccc(Cl)cc2)c1=O [Compound I-2297] | 65 nM |
| CCCOc1ccc(/N=c2\[nH]c(=O)n(CC(F)(F)C(=O)OCC)c(=O)n2Cc2ccc(C)cc2)cc1 [Compound I-0859] | 17 nM |

— patent publication US9718790B2, “Triazine derivative and pharmaceutical composition having an analgesic activity comprising the same” (SHIONOGI & CO., LTD., priority 2010, dated 2017)
